Test results published in patent publication US7605280B2, “Anthraquinone and its derivatives” (Biostatus Limited, priority 1998, dated 2009).

Assays:
viable HL60 cells = test: Flow cytometric analysis of DRAQ5 accumulation (Cytometers A and B); format: cell-based, human; conditions: Cytometer B, low power 633 nm, 1 h exposure
Protocol: HL60 (human promyelocytic-leukaemia cell line) and SUD4 (human B cell lymphoma cell line) were grown as suspension cultures-in-RMPI medium with 10% foetal calf serum, 1 mM glutamine and antibiotics and incubated at 37° C. in an atmosphere of 5% CO2 in air. For flow cytometry experiments, asynchronously growing suspension cultures were diluted to 2.5-4>10^5 cells/ml at 2 h prior to drug treatment. Cell cycle-perturbed populations were obtained by treating SUD4 cells with the drug etoposide (VP-16-213) at 0.25 μM for 18h. Cells were treated with DRAQ5 and FDA as described above. Cell concentrations were determined using a Coulter counter and cell cycle distribution determined using an algorithm for the normal distibution of fluorescence intensity profiles for fluorochrome stained G1 and G2 cells.
Cells were analysed using one of four flow cytometers according to the excitation requirements. • Cytometer A: Single beam high power 647 nm krypton laser excitation: The system was a custom-built cytometer and incorporated an Innova 3000K krypton laser (Coherent Corp., Palo Alto, Calif., USA) tuned to the 647 nm line. Forward light scatter, 90° light scatter and fluorescence emissions were collected for 1×10^4 cells using the 90° light scatter parameter as the master signal. […] Forward and 90° light scatter were analysed for the identification of cell debris. […]

Solubility = format: physicochemical

CN(C)CCNc1ccc(O)c2c1C(=O)c1c(O)ccc(NCCN(C)C)c1C2=O [DRAQ5]
lower end of linear dose-response of 633 nm derived DRAQ5 signal (viable HL60 cells): approximately 2.5 μM | solubility (Solubility): soluble in biologically compatible solvents including water
